Laboratory results as given in patent publication EP1963277B1, “FLUORINATED COMPOUNDS” (priority 2005, dated 2007).
Read-outs that look alike come from different tables or passages of the source.

Legend:
Assay type in all cases: in vivo
FCA-treated rats [1] = test: Freund's Complete Adjuvant (FCA) model, mechanical allodynia (modified Randall-Selitto method); conditions: p.o.; for paw withdrawal threshold (g), Post Admin 30 min / paw withdrawal threshold (g), Post Admin 60 min / paw withdrawal threshold (g), Post Admin 180 min: 60 mg/kg, ** P<0.01, *** P<0.001 vs Pre-Admin.; for paw withdrawal threshold (g), Pre-Admin. 0 min: group later given 60 mg/kg, baseline before administration
Description: (§1) Administration of FCA to the hind paw of an animal induces the formation of a localized edema and has been widely used as a model of chronic inflammatory pain. 100 µl of FCA is injected subcutaneously into the dorsal aspect of the left hind paw of the rats. The edema appears within 2 h reaches a peak by 6h and lasts for about 7 days. The effects of compounds on mechanical allodynia and paw volume were studied 2 days after FCA administration.
The effect of the compounds in alleviating mechanical allodynia was assessed in the FCA-treated rats using the modified Randall-Selitto method (Analgesy-Meter, Ugo Basile, Italy). The animal's paw is placed on a small plinth under a cone-shaped pusher. Increasing force is applied to the paw by depressing a pedal until vocalization or withdrawal of the paw occurs. The minimum force required to elicit this vocalization/withdrawal is the paw pressure threshold. The cut-off was set at 150 g.
After the initial basal (control) readings were taken, the test compound (60 mg/kg)/vehicle was administered orally in a volume of 10 ml/kg. The paw pressure thresholds were measured 30, 60 and 180 min post administration. […] Some of the compounds were effective even at 60 and 180 min post administration.

FCA-treated rats [2] = test: Freund's Complete Adjuvant (FCA) model, paw edema/volume (plethysmometer); conditions: p.o.; for paw volume (ml), Post Admin 30 min / paw volume (ml), Post Admin 60 min: 60 mg/kg; for paw volume (ml), Pre-Admin. 0 min: group later given 60 mg/kg, baseline before administration
Description: as §1
The edema/volume of the paw is a measure of inflammation induced by FCA. This was measured by using a plethysmometer (Ugo Basile, Italy). In this, the paw of the rat is immersed in a reservoir of water and the volume of water displaced indicates the paw volume.
After the initial basal (control) readings were taken, the test compound (60 mg/kg)/vehicle was administered orally in a volume of 10 ml/kg.

[3] = tested on: Male, Sprague-Dawley rats; test: Maximal Electroshock Assay (rat); conditions: for duration of action: rat MES, judged by similar potency at 0.5h and 4h pretreatment timepoints; for Ratio ED50 4h vs. 0.5h / shift in ED50 for 0.5 vs. 4h / ED50: rat; for Ratio ED50 4h vs. 0.5h / shift in ED50 for 0.5 vs. 4h: oral; for ED50: oral pretreatment, range in parentheses
Description: Male, Sprague-Dawley rats (approx. 100g body weight) were prescreened for tonic seizure susceptibility prior to drug testing. […] Protection was defined by the absence of a tonic extensor seizure in the animal within 20s of application of the electrical stimulus, which typically occurred in all vehicle pretreated animals. Animals received only one electroshock on the drug test day and so separate animals were used for the 0.5h and 4h timepoints. All drugs were administered in multiple doses.

SNI rats [4] = test: Spared Nerve Injury (SNI) model, mechanical allodynia (Dynamic Plantar Aesthesiometer); conditions: for withdrawal threshold, Post Admin 30 min / withdrawal threshold, Post Admin 60 min / withdrawal threshold, Post Admin 180 min: *** P<0.001 vs Pre-Admin.; for withdrawal threshold, Pre-Admin. 0 min: baseline before administration
Description: (§2) The compounds were tested for their efficacy in reducing mechanical allodynia and cold allodynia in the spared nerve injury (SNI) model of chronic neuropathic pain. In this model, the left sciatic nerve of the rat is exposed under anesthesia. Two of the branches of the sciatic nerve viz. the common peroneal and tibial nerve are ligated and sectioned. The third branch (sural nerve) is left intact. The animals were allowed a post-operative recovery period of 7 days before they were subjected to any test.
The presence of mechanical allodynia was assessed using the Dynamic Plantar Aesthesiometer (Ugo Basile, Italy) which is a modified version of the Von Frey Hair test. In this, a test filament is positioned below the animal's hind paw and the unit is activated which causes the filament to move up and touch the plantar surface of the hind paw. Increasing force is applied to the paw via the filament. […] The cut-off force is set at 50 g. The tests were done on both the non-injured (control) and the injured (SNI) paw.
Testing of compounds was done after 21 days post-operatively. After initial basal readings were taken, the test compound or the vehicle was administered (10 ml/kg) either intraperitoneally (30 mg/kg) or orally (60 mg/kg). The readings were taken again 30, 60 and 180 min after the compound/vehicle administration.

SNI rats [5] = test: Spared Nerve Injury (SNI) model, cold allodynia (acetone test); conditions: for duration (s) of nociceptive response, Post Admin 30 min: *** P<0.001 vs Pre-Admin.; for duration (s) of nociceptive response, Pre-Admin. 0 min: baseline before administration
Description: as §2
Cold allodynia was assessed by using the acetone test. In this model, 25 µl of acetone is sprayed on to the plantar surface of the hind paw. Evaporation of acetone causes cooling of the skin. The cold stimulus sets up nociceptive responses from the injured paw as evidenced by paw lifting, paw licking and grooming. The duration of the nociceptive responses is noted.
Testing of compounds was done after 21 days post-operatively. After initial basal readings were taken, the test compound or the vehicle was administered (10 ml/kg) either intraperitoneally (30 mg/kg) or orally (60 mg/kg). The readings were taken 30 min after the administration.

Male, CD-1 mice = test: Maximal Electroshock Assay (mouse); conditions: for duration of action: mouse MES, judged by similar potency at 1h and 4h pretreatment timepoints; for Ratio ED50 4h vs. 1h / shift in ED50 for 1 vs. 4h / ED50: mouse; for Ratio ED50 4h vs. 1h / shift in ED50 for 1 vs. 4h: oral; for ED50: oral pretreatment, range in parentheses
Description: Male, CD-1 mice (20-30g body weight) were orally pretreated with test compound or vehicle control, and either at 1h or 4h post dose a maximal electroshock (45mA amplitude, 0.2s duration, 60Hz) was applied by corneal electrodes. Protection was defined by the absence of a tonic extensor seizure in the animal within 20s of application of the electrical stimulus, which typically occurred in all vehicle pretreated animals. Animals received only one electroshock and so separate animals were used for the 1h and 4h timepoints. All drugs were administered in multiple doses.

rats = test: Persistent Inflammatory Pain (Formalin Model); conditions: Rattus norvegicus, formalin test, 30 min pretreatment; for inhibition at 30 mg/kg: ip, i.p.; for inhibition at 60 mg/kg: po, p.o.
Description: The formalin test is a chemically-induced tonic pain model in which injection of formalin into a hind paw elicits a biphasic nociceptive behavior. The second phase of formalin response is predominantly due to a central sensitization phenomenon. Most clinically used drugs against neuropathic pain arc active on this second phase of formalin response. Formalin test is accepted as a valid model of persistent clinical pain.
The test was done by pretreating the rats with the test compound and 30 min later (pretreatment time), 50 µl of 2.5% formalin was injected into the right hind paw of the animal. The number of paw licking and flinching episodes were scored for 60 min post-formalin injection.
The compounds were administered either intraperitoneally (30 mg/kg) or orally (60 mg/kg).

[6] = read-out: MES oral ED50 0.5h, electroshock 0.5h post dose
[7] = read-out: MES oral ED50 4h, electroshock 4h post dose
[8] = group later given 30 mg/kg, i.p.
[9] = group later given 60 mg/kg, p.o.
[10] = electroshock 1h post dose, blockade of tonic extensor seizure, read-out: MES oral ED50 1h
[11] = *** P<0.001, read-out: %Inhibition Phase I
[12] = *** P<0.001, read-out: %Inhibition Phase II
[13] = ** P<0.01, *** P<0.001, read-out: %Inhibition Phase II

| Compound | paw withdrawal threshold (g), Post Admin 30 min (FCA-treated rats [1]) | paw withdrawal threshold (g), Post Admin 60 min (FCA-treated rats [1]) | paw withdrawal threshold (g), Post Admin 180 min (FCA-treated rats [1]) | paw withdrawal threshold (g), Pre-Admin. 0 min (FCA-treated rats [1]) [g] | paw volume (ml), Post Admin 30 min (FCA-treated rats [2]) [mL] | paw volume (ml), Post Admin 60 min (FCA-treated rats [2]) [mL] | paw volume (ml), Pre-Admin. 0 min (FCA-treated rats [2]) [mL] | duration of action [3] | Ratio ED50 4h vs. 0.5h [3] | shift in ED50 for 0.5 vs. 4h [3] [fold] | ED50 [3, 6] [mg/kg] | ED50 [3, 7] [mg/kg] | withdrawal threshold, Post Admin 30 min (SNI rats [4]; 30 mg/kg, i.p.) | withdrawal threshold, Post Admin 60 min (SNI rats [4]; 30 mg/kg, i.p.) | withdrawal threshold, Post Admin 180 min (SNI rats [4]; 30 mg/kg, i.p.) | withdrawal threshold, Post Admin 30 min (SNI rats [4]; 60 mg/kg, p.o.) | withdrawal threshold, Post Admin 60 min (SNI rats [4]; 60 mg/kg, p.o.) | withdrawal threshold, Post Admin 180 min (SNI rats [4]; 60 mg/kg, p.o.) | withdrawal threshold, Pre-Admin. 0 min (SNI rats [4]; [8]) [g] | ED50 (Male, CD-1 mice; [7]) [mg/kg] | other results |
| --- | --- | --- | --- | --- | --- | --- | --- | --- | --- | --- | --- | --- | --- | --- | --- | --- | --- | --- | --- | --- | --- |
| CC(=O)NC(COC(F)F)C(=O)NCc1ccc(F)cc1 (stereo not drawn) [Compound 4, 2-(Acetylamino)-3-(difluoromethoxy)-N-(4-fluoro-benzyl)propanamide] | 58.3 ± 4.8** g | 49.4 ± 6.4** g | 51.1 ± 8.9** g | 33.9 ± 4.2 | 2.08 ± 0.0 | 2.11 ± 0.0 | 2.01 ± 0.0 | longer than Lacosamide | 1.0 | 1 to 1.4 | 3.3 | 3.4 | 16.7 ± 1.4*** g | 15.0 ± 0.8*** g | 13.2 ± 1.0*** g | 15.4 ± 1.1*** g | 16.2 ± 1.7*** g | 7.9 ± 0.6 g | 6.7 ± 0.7 | 9.8 | withdrawal threshold, Pre-Admin. 0 min (SNI rats [4]; [9]): 7.5 ± 0.5 g; duration (s) of nociceptive response, Post Admin 30 min (SNI rats [5]; 30 mg/kg, i.p.): 3.1 ± 2.1*** s; duration (s) of nociceptive response, Post Admin 30 min (SNI rats [5]; 60 mg/kg, p.o.): 21.9 ± 6.4*** s; duration (s) of nociceptive response, Pre-Admin. 0 min (SNI rats [5]; [8]): 48.2 ± 10.1 s; duration (s) of nociceptive response, Pre-Admin. 0 min (SNI rats [5]; [9]): 56.2 ± 8.4 s; duration of action (Male, CD-1 mice): longer than Lacosamide; Ratio ED50 4h vs. 1h (Male, CD-1 mice): 1.0; shift in ED50 for 1 vs. 4h (Male, CD-1 mice): 1 to 3.5 fold; ED50 (Male, CD-1 mice; [10]): 9.8 mg/kg; inhibition at 30 mg/kg (rats; [11]): 94.7 ± 5.3%; inhibition at 30 mg/kg (rats; [12]): 81.6 ± 10%; inhibition at 60 mg/kg (rats; [13]): 41.9 ± 9%; inhibition at 60 mg/kg (rats; read-out: %Inhibition Phase I): 7.6 ± 6.7% |
| COC[C@@H](NC(C)=O)C(=O)NCc1ccccc1 [Lacosamide, R-2-acetamido-N-benzyl-3-methoxy-propanamide, reference compound] |  |  |  |  |  |  |  |  |  |  | 1.8 | 8.3 |  |  |  |  |  |  |  | 32 |  |
| CC(=O)N[C@H](COC(F)F)C(=O)NCc1ccc(Cl)cc1 [Compound 20] | 67.1 ± 9.9*** g | 60.4 ± 5.8*** g | 64.2 ± 5.6*** g | 23.3 ± 2.1 | 2.3 ± 0.1 | 2.3 ± 0.1 | 2.3 ± 0.1 | longer than Lacosamide | 1.2 | 1 to 1.4 | 1.7 | 2 | 24.9 ± 4.4*** g | 23.3 ± 3.2*** g | 26.3 ± 2.5*** g | 19.3 ± 1.8*** g | 20.3 ± 1.6*** g | 14.7 ± 0.9*** g | 12.4 ± 1.3 | 17.9 | withdrawal threshold, Pre-Admin. 0 min (SNI rats [4]; [9]): 7.5 ± 0.5 g; duration (s) of nociceptive response, Post Admin 30 min (SNI rats [5]; 30 mg/kg, i.p.): 3.4 ± 2.1*** s; duration (s) of nociceptive response, Post Admin 30 min (SNI rats [5]; 60 mg/kg, p.o.): 16.6 ± 6.3*** s; duration (s) of nociceptive response, Pre-Admin. 0 min (SNI rats [5]; [8]): 45.6 ± 6.9 s; duration (s) of nociceptive response, Pre-Admin. 0 min (SNI rats [5]; [9]): 33.3 ± 4.3 s; duration of action (Male, CD-1 mice): longer than Lacosamide; Ratio ED50 4h vs. 1h (Male, CD-1 mice): 2.1; shift in ED50 for 1 vs. 4h (Male, CD-1 mice): 1 to 3.5 fold; ED50 (Male, CD-1 mice; [10]): 8.7 mg/kg; inhibition at 30 mg/kg (rats; [11]): 75.3 ± 9.3%; inhibition at 30 mg/kg (rats; [12]): 82.3 ± 9.7%; inhibition at 60 mg/kg (rats; [13]): 57.6 ± 7%; inhibition at 60 mg/kg (rats; read-out: %Inhibition Phase I): 9.6 ± 8.1% |
